Reference: patent publication US5006534A, “Substituted ethers, thioethers and amines for use as lipoxygenase inhibitors” (Bayer Aktiengesellschaft, priority 1985, dated 1991)

Key:
[1] = system: lipoxygenase; assay: LTB4 release on polymorphonuclear rat leucocytes (PMN) by RP-HPLC after Ca ionophor, as a measure of lipoxygenase inhibition; type: cell-based
Method: The release of leukotriene B4 (LTB4) was determined on polymorphonuclear rat leucocytes (PMN) by means of reverse phase high performance liquid chromatography, after addition of substances and Ca ionophor, in accordance with the method of Borgeat, P. et al., Proc. Nat. Acad. Sci., 76, 2148-2152 (1979) as a measure of the lipoxygenase inhibition.

[2] = system: mouse ear inflammation; assay: mouse ear inflammation model; type: in vivo

Row | Structure (SMILES) | LO inhibition IC50 values [1] [µg/mL] | Inhibition of inflammation at 2 mg/ear [2] [%]
1 | CCCCCC(OC(C)=O)c1cccc(COc2cccc3cccnc23)c1 (centres unmarked) [Example 38, 1-[3-(Quinolin-8-yloxymethyl)phenyl]hexyl acetate] | 0.14 | 75.0
2 | CCCCCCC(OC(C)=O)c1cccc(COc2cccc3cccnc23)c1 (centres unmarked) [Example 39, 1-[3-(Quinolin-8-yloxymethyl)phenyl]heptyl acetate] | 0.26 | 72.0
3 | CCCCC(O)c1cccc(COc2cccc3cccnc23)c1 (centres unmarked) [Example 55, 1-[3-(Quinolin-8-yloxymethyl)phenyl]pentanol] | 0.083 | 70.0
4 | CCCCCCC(O)c1cccc(COc2cccc3cccnc23)c1 (centres unmarked) [Example 57, 1-[3-(Quinolin-8-yloxymethyl)phenyl]heptanol] | 0.23 | 86.1
